Where a name gives a salt, the structure may show the parent alone.

The subject of test [1] is HCT116. Briefly: AC50 cell viability (CellTiter-Glo); higher = less potent. The note with it: 48 h. In general terms: In ATP-based viability assays light output follows the ATP content of the culture.
For test [2], the system named is HCT116. Briefly: efficacy (fitted maximal change in viability relative to DMSO control); higher = less cytotoxic (negative = loss of viability). The note with it: 48 h.
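Wherever AC50 cell viability (CellTiter-Glo) is given: HCT116 colorectal carcinoma cells screened at five concentrations per compound, luminescent viability scaled between DMSO wells and empty wells on each plate, curves fitted per compound.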
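Wherever efficacy (fitted maximal change in viability relative to DMSO control) is given: Luminescence-based viability readout, five doses per compound, normalized against on-plate DMSO and empty-well controls, followed by dose-response curve fitting for every drug.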

`CC[S+]([O-])(=O)NC1=CC(=C(OC2=C(F)C=C(F)C=C2)C=C1)\C3=C\N(C)C(=O)C4=C3C=C[NH]4` [Mivebresib (ABBV-075)] displayed an AC50 cell viability with HCT116 [1] of 0.0525 µM. Besides, the efficacy in the test with HCT116 [2] is -97.5%.
The matching figures for `Nc1ccccc1NC(=O)c1ccc(CNc2nccc(-c3cccnc3)n2)cc1` [Mocetinostat]: 0.934 µM and -73.2%.
In the test on HCT116 [1], `NC/1=N/C(=O)C/2=C(/NCC3CN(CN23)C4=CC=C(C=C4)C(=O)N[C@@H](CCC(O)=O)C(O)=O)N1` (some centres undefined) [Modufolin] displayed an AC50 cell viability of 8.33 µM. Moreover, the efficacy in the test on HCT116 [2] is -92%.
As to `N#CCNC(=O)c1ccc(-c2ccnc(Nc3ccc(N4CCOCC4)cc3)n2)cc1` [Momelotinib], in the test with HCT116 [1], the AC50 cell viability was determined as 3.72 µM. In the test on HCT116 [2], the efficacy is -74.3%.
Regarding `C[C@@H]1C[C@H]2[C@@H]3CC\C4=C\C(=O)\C=C/[C@]4(C)[C@@]3(Cl)[C@@H](O)C[C@]2(C)[C@@]1(OC(=O)C5=CC=CO5)C(=O)CCl` [Mometasone furoate], the AC50 cell viability in the test on HCT116 [1] turned out to be 20.9 µM. The efficacy with HCT116 [2] was -78.7%.
In turn, `CC[C@@]1([C@@H]2O[C@@H]([C@H]3O[C@@](O)(CO)[C@H](C)C[C@@H]3C)C[C@@H]2C)CC[C@H]([C@]2(C)CC[C@]3(C[C@H](O)[C@@H](C)[C@@H]([C@@H](C)[C@@H](OC)[C@H](C)C(=O)[O-])O3)O2)O1` [Monensin sodium salt] yielded an AC50 cell viability in the test on HCT116 [1] of 0.456 µM. Further, the efficacy in the test on HCT116 [2] was -47.4%.
The matching figures for `Oc1ccc(OCc2ccccc2)cc1` [Monobenzone]: 18.6 µM and -47.7%.
The matching figures for `CCCN(CCC)C(=O)C\1=C\C2=CC=C(C=C2\N=C(N)/C1)C3=CC=C(C=C3)C(=O)N4CCCC4` [Motolimod]: 18.6 µM and -45.8%.
The matching figures for `FC(F)(F)c1ccc(/C=C/c2nc(COc3ccc(CCCCn4ccnn4)cc3)co2)cc1` [Mubritinib]: 0.0209 µM and -38.5%.
Consider `COc1c(C)c2c(c(O)c1C/C=C(\C)CCC(=O)OCCN1CCOCC1)C(=O)OC2` [Mycophenolate mofetil], for which the AC50 cell viability in the test on HCT116 [1] was 2.63 µM. Further, in the test with HCT116 [2], the efficacy is -80.7%.
Taken in the same sequence, the figures for `COc1c(C)c2c(c(O)c1C/C=C(\C)CCC(=O)O)C(=O)OC2` [Mycophenolic acid] were 2.09 µM and -82%.
For the molecule `CC(C)(O)C[S+](=O)([O-])Nc1ccc2c(c1)CCN(C(=O)COc1cccnc1)C2` [NAMPT-IN-1], in the test with HCT116 [1], the AC50 cell viability is 0.0468 µM. In the test on HCT116 [2], the efficacy is -92.6%.
Turning to `O[C@H]1CC[C@@H](Oc2cccc3cnc(Nc4ccc5nc[nH]c5c4)nc23)CC1` [NCB-1026], the AC50 cell viability in the test on HCT116 [1] was found to be 0.525 µM. Also, the efficacy with HCT116 [2] was -64.6%.
The matching figures for `COc1ccc(Nc2cc(-c3cnc(N)nc3)nc(N3CCOCC3)n2)cn1` [NIBR-17]: 2.63 µM and -65.5%.
Taken in the same sequence, the figures for `[O-][S+]1(=O)/N=C(/NC2=CC(=CC=C2)NC(=O)CCl)C3=CC=CC=C13` [NMS-859] were 26.3 µM and -85.1%.
The matching figures for `Cc1cc(OCc2nnc(SC3CCCC3)n2-c2cccnc2)ccc1-c1ccc([S+](C)(=O)[O-])cc1` [NMS-873]: 1.48 µM and -104%.
`CN1CCN(c2ccc(OC(F)(F)F)c(Nc3ncc4c(n3)-c3c(c(C(N)=O)nn3CCO)CC4)c2)CC1` [NMS-P937] gave an AC50 cell viability in the test with HCT116 [1] of 0.0661 µM. Also, in the test with HCT116 [2], the efficacy is -63.9%.
The matching figures for `CN\1N(C(=O)\C(=C1C)C(=O)NC2=CC=C(OC3=CC=NC4=C3C(=C[NH]4)C5=CC=CC=C5)C(=C2)F)C6=CC=C(F)C=C6` [NPS-1034]: 14.8 µM and -59.9%.
The matching figures for `CC(C)(Cc1ccc2ccccc2c1)NC[C@@H](O)COc1cccc(Cl)c1C#N` [NPS-2143]: 9.34 µM and -97.5%.
With `COc1cccc([C@@H](C)NCCCc2ccccc2Cl)c1` [NPS-R568], the AC50 cell viability in the test on HCT116 [1] turned out to be 23.5 µM. The efficacy with HCT116 [2] was -99.8%.
Taken in the same sequence, the figures for `Nc1nc(N)c(N=O)c(OCC2CCCCC2)n1` [NU-6027] were 13.2 µM and -64.3%.
Taken in the same sequence, the figures for `N[S+](=O)([O-])c1ccc(Nc2nc(OCC3CCCCC3)c3[nH]cnc3n2)cc1` [NU-6102] were 16.6 µM and -92.8%.
Taken in the same sequence, the figures for `O=C1\C=C(OC2=C(C=CC=C12)C3=CC=CC4=C3SC5=C4C=CC=C5)\N6CCOCC6` [NU-7441] were 3.72 µM and -76.8%.
The molecule `Nc1ncnc2c1c(-c1cccc(OCc3ccccc3)c1)cn2[C@H]1C[C@@H](CN2CCC2)C1` [NVP-AEW541] returned an AC50 cell viability with HCT116 [1] of 5.9 µM. Further, the efficacy with HCT116 [2] is -85.2%.
The matching figures for `CCNC(=O)c1noc(-c2cc(C(C)C)c(O)cc2O)c1-c1ccc(CN2CCOCC2)cc1` [NVP-AUY922]: 0.105 µM and -63.2%.
Taken in the same sequence, the figures for `COc1ccc(-c2ccc3ncc4c(c3c2)n(-c2ccc(N3CCNCC3)c(C(F)(F)F)c2)c(=O)n4C)cn1` [NVP-BGT226] were 0.295 µM and -117%.
In the test with HCT116 [1], `Cc1ccc(C(=O)Nc2cccc(C(F)(F)F)c2)cc1Nc1nc(-c2cccnc2)nc2c1cnn2C` [NVP-BHG712] displayed an AC50 cell viability of 8.33 µM. Further, in the test on HCT116 [2], the efficacy is -103%.
In the case of `Fc1cc(-c2cccc3ncc(-c4cnn(C5CCNCC5)c4)nc23)cc(F)c1CN1CCOCC1` [NVP-BSK805], the AC50 cell viability in the test on HCT116 [1] is 8.33 µM. Also, in the test on HCT116 [2], the efficacy is -91%.
The matching figures for `Cn1cc(-c2ccc3ncc(Cc4ccc5ncccc5c4)n3n2)cn1` [NVP-BVU-972]: 18.6 µM and -40.8%.
The matching figures for `C[S+](=O)([O-])N1CCC(NC(=O)c2[nH]ncc2NC(=O)c2c(Cl)cccc2Cl)CC1` [NVP-LCQ195]: 0.525 µM and -64.2%.
In turn, `CNC(=O)c1ccccc1Nc1nc(Nc2ccc(N3CCOCC3)cc2OC)ncc1Cl` [NVP-TAE226] registered an AC50 cell viability in the test on HCT116 [1] of 0.833 µM. The efficacy in the test on HCT116 [2] was -77.8%.
`CCC[S+](=O)([O-])c1nc(NC2CC2)cc(-c2ccc3c(ccn3C3CC(C)(C)NC(C)(C)C3)c2)n1` [NVS-CECR2-1] registered an AC50 cell viability in the test with HCT116 [1] of 2.78 µM. In the test with HCT116 [2], the efficacy was -93.7%.
Taken in the same sequence, the figures for `COc1ccccc1N1CCN(CC(O)COc2cccc3ccccc23)CC1` (centres undefined) [Naftopidil] were 18.6 µM and -57.2%.
Taken in the same sequence, the figures for `CNC(=O)[C@H]1O[C@@H](n2cnc3c(NCc4cccc(I)c4)nc(Cl)nc32)[C@H](O)[C@@H]1O` [Namodenoson] were 23.5 µM and -94.8%.
Taken in the same sequence, the figures for `CO[C@H]1CCC(O[C@H]2C[C@H]([C@]3(C)CC[C@]4(C[C@H](O)[C@@H](C)[C@@H]([C@@H](C)/C=C(\C)C(=O)[C@H](C)C[C@H](C)C(=O)[O-])O4)O3)O[C@]3(O[C@@H]([C@H]4O[C@@](O)(CO)[C@H](C)C[C@@H]4C)C[C@@H]3C)[C@@H]2C)O[C@@H]1C` (some centres undefined) [Nanchangmycin] were 2.95 µM and -101%.
As for `CC(=O)c1cc2c(o1)C(=O)c1ccccc1C2=O` [Napabucasin], in the test on HCT116 [1], the AC50 cell viability is 0.934 µM. Also, in the test on HCT116 [2], the efficacy is -93.8%.
`C=CC(=O)N1CC[C@@H](Oc2nc(Nc3ccc(N4CCC(N5CCN(C)CC5)CC4)cc3)c(C(N)=O)nc2CC)C1` [Naquotinib mesylate] registered an AC50 cell viability in the test on HCT116 [1] of 3.23 µM. In the test on HCT116 [2], the efficacy is -103%.
With `CC1(C)CCC(=C(CN2CCN(CC2)C3=CC=C(C=C3)C(=O)N[S+]([O-])(=O)C4=CC(=C(N[C@H](CCN5CCOCC5)CSC6=CC=CC=C6)C=C4)[S+]([O-])(=O)C(F)(F)F)\C1)/C7=CC=C(Cl)C=C7` [Navitoclax (ABT-263)], the AC50 cell viability in the test with HCT116 [1] is 13.2 µM. Further, in the test on HCT116 [2], the efficacy was -90.7%.
The matching figures for `Cc1c(O)cccc1C(=O)NC(CSc1ccccc1)C(O)CN1CC2CCCCC2CC1C(=O)NC(C)(C)C` (centres undefined) [Nelfinavir]: 20.9 µM and -101%.
Molecule `COc1cccc2c1C(=O)c1c(O)c3c(c(O)c1C2=O)C[C@@](O)(C(=O)CO)CC3OC1CC(N2CCOC(OC)C2)C(O)C(C)O1` (some centres undefined) [Nemorubicin] registered an AC50 cell viability in the test on HCT116 [1] of 0.0263 µM. Moreover, the efficacy in the test with HCT116 [2] is -66%.
Regarding `CCOc1cc2ncc(C#N)c(Nc3ccc(OCc4ccccn4)c(Cl)c3)c2cc1NC(=O)/C=C/CN(C)C` [Neratinib], the AC50 cell viability in the test with HCT116 [1] was 2.35 µM. Further, the efficacy with HCT116 [2] was -72.5%.
The matching figures for `Cc1ccc(C(=O)OCc2ccc([C@@H](CN)C(=O)Nc3ccc4cnccc4c3)cc2)c(C)c1` [Netarsudil]: 8.11 µM and -108%.
With `O=C(Nc1ccc([N+](=O)[O-])cc1Cl)c1cc(Cl)ccc1O` [Niclosamide], in the test on HCT116 [1], the AC50 cell viability worked out at 1.05 µM. Moreover, the efficacy with HCT116 [2] is -90.8%.
As for `COC(=O)C/1=C(C)/N/C(=C(\C1C2=CC(=CC=C2)[N+]([O-])=O)C(=O)OCCCN3CCC(CC3)(C4=CC=CC=C4)C5=CC=CC=C5)C` (centres undefined) [Niguldipine], the AC50 cell viability in the test on HCT116 [1] stood at 8.33 µM. Further, the efficacy with HCT116 [2] is -98.1%.
Turning to `Cc1cn(-c2cc(NC(=O)c3ccc(C)c(Nc4nccc(-c5cccnc5)n4)c3)cc(C(F)(F)F)c2)cn1` [Nilotinib], in the test on HCT116 [1], the AC50 cell viability was 1.66 µM. For the same molecule, the efficacy in the test on HCT116 [2] is -46.8%.
Consider `COC(=O)c1ccc2c(c1)NC(=O)/C2=C(\Nc1ccc(N(C)C(=O)CN2CCN(C)CC2)cc1)c1ccccc1` [Nintedanib], for which the AC50 cell viability with HCT116 [1] was 5.9 µM. Moreover, in the test with HCT116 [2], the efficacy was -92.2%.
The matching figures for `NC(=O)c1cccc2cn(-c3ccc([C@@H]4CCCNC4)cc3)nc12` [Niraparib]: 18.6 µM and -92%.

The record behind these values is the supplement of paper PMC10290057.
